Reference: patent US4820694A, “Modifications of 3-O-demethylmycinose in macrocin and lactenocin” (priority 1986, dated 1989)
In brackets after ≈: the same amount, converted by molar mass. Read-outs that look alike come from different tables or passages of the source.

Columns and labels:
[1] = tested on: Escherichia coli EC14; test: standard agar-dilution MIC assay; assay type: cell-based; conditions: agar-dilution, read-out: MIC
Description: (§1) The MIC's in Table III were determined by standard agar-dilution assays. The MIC's in Table IV were obtained using conventional brothdilution microtiter tests.

[2] = tested on: Haemophilus influenzae 76; test: standard agar-dilution MIC assay; assay type: cell-based; conditions: Haemophilus influenzae, 76
Description: as §1

[3] = tested on: Haemophilus influenzae C.L.; test: standard agar-dilution MIC assay; assay type: cell-based; conditions: Haemophilus influenzae
Description: as §1

[4] = tested on: Klebsiella pneumoniae X68; test: standard agar-dilution MIC assay; assay type: cell-based; conditions: Klebsiella pneumoniae, X68; agar-dilution; read-out: MIC
Description: as §1

[5] = tested on: Pseudomonas aeruginosa X239; test: standard agar-dilution MIC assay; assay type: cell-based; conditions: Pseudomonas aeruginosa, X239; agar-dilution; read-out: MIC
Description: as §1

[6] = tested on: Staphylococcus aureus V41; test: standard agar-dilution MIC assay; assay type: cell-based; conditions: Staphylococcus aureus, V41
Description: as §1

[7] = tested on: Staphylococcus aureus X1.1; test: standard agar-dilution MIC assay; assay type: cell-based; conditions: Staphylococcus aureus, X1.1
Description: as §1

[8] = tested on: Staphylococcus aureus X400; test: standard agar-dilution MIC assay; assay type: cell-based; conditions: Staphylococcus aureus, X400
Description: as §1

[9] = tested on: Staphylococcus epidermidis 222; test: standard agar-dilution MIC assay; assay type: cell-based; conditions: Staphylococcus epidermidis, 222
Description: as §1

[10] = tested on: Staphylococcus epidermidis EPI1; test: standard agar-dilution MIC assay; assay type: cell-based; conditions: Staphylococcus epidermidis, EPI1
Description: as §1

[11] = tested on: Streptococcus Group D 2041; test: standard agar-dilution MIC assay; assay type: cell-based; conditions: GROUPD2041
Description: as §1

[12] = tested on: Streptococcus Group D X66; test: standard agar-dilution MIC assay; assay type: cell-based; conditions: read-out: MIC
Description: as §1

[13] = tested on: Streptococcus pyogenes C203; test: standard agar-dilution MIC assay; assay type: cell-based; conditions: Streptococcus pyogenes, C203
Description: as §1

[14] = tested on: Staphylococcus aureus S13E; test: microbe, parasite or virus in culture; assay type: cell-based; conditions: Staphylococcus aureus, S13E
Description: as §1

[15] = tested on: Streptococcus pneumoniae Park I; test: microbe, parasite or virus in culture; assay type: cell-based; conditions: Streptococcus pneumoniae
Description: as §1

[16] = tested on: Bordetella bronchiseptica; test: broth-dilution microtiter MIC test; assay type: cell-based; conditions: Bordetella bronchiseptica; broth-dilution microtiter; read-out: MIC
Description: as §1

[17] = tested on: Mycoplasma gallisepticum 15E; test: broth-dilution microtiter MIC test; assay type: cell-based; conditions: Mycoplasmoides gallisepticum, 15E
Description: as §1

[18] = tested on: Mycoplasma gallisepticum 29C; test: broth-dilution microtiter MIC test; assay type: cell-based; conditions: Mycoplasmoides gallisepticum, 29C
Description: as §1

[19] = tested on: Mycoplasma gallisepticum 36H; test: broth-dilution microtiter MIC test; assay type: cell-based; conditions: Mycoplasmoides gallisepticum, 36H
Description: as §1

[20] = tested on: Mycoplasma hyopneumoniae S5972; test: broth-dilution microtiter MIC test; assay type: cell-based; conditions: Mesomycoplasma hyopneumoniae, S5972
Description: as §1

[21] = tested on: Mycoplasma hyorhinis 29E; test: broth-dilution microtiter MIC test; assay type: cell-based; conditions: Mycoplasma, 29E
Description: as §1

[22] = tested on: Mycoplasma synoviae 40A; test: broth-dilution microtiter MIC test; assay type: cell-based; conditions: Mycoplasmopsis synoviae, 40A
Description: as §1

[23] = tested on: Pasteurella hemolytica 22C; test: broth-dilution microtiter MIC test; assay type: cell-based; conditions: Pasteurella, 22C
Description: as §1

[24] = tested on: Pasteurella hemolytica 23C; test: broth-dilution microtiter MIC test; assay type: cell-based; conditions: Pasteurella, 23C
Description: as §1

[25] = tested on: Pasteurella hemolytica 41D; test: broth-dilution microtiter MIC test; assay type: cell-based; conditions: Pasteurella, 41D
Description: as §1

[26] = tested on: Pasteurella multocida 17E; test: broth-dilution microtiter MIC test; assay type: cell-based; conditions: Pasteurella multocida, 17E
Description: as §1

[27] = tested on: Pasteurella multocida 22A; test: broth-dilution microtiter MIC test; assay type: cell-based; conditions: Pasteurella multocida, 22A
Description: as §1

[28] = tested on: Pasteurella multocida 40G; test: broth-dilution microtiter MIC test; assay type: cell-based; conditions: Pasteurella multocida, 40G
Description: as §1

[29] = tested on: Pasteurella multocida 60A; test: broth-dilution microtiter MIC test; assay type: cell-based; conditions: Pasteurella multocida, 60A
Description: as §1

[30] = tested on: Pasteurella multocida 68C; test: broth-dilution microtiter MIC test; assay type: cell-based; conditions: Pasteurella multocida, 68C
Description: as §1

[31] = tested on: Staphylococcus aureus 19C; test: broth-dilution microtiter MIC test; assay type: cell-based; conditions: Staphylococcus aureus, 19C
Description: as §1

[32] = tested on: Streptococcus sp. 19F; test: broth-dilution microtiter MIC test; assay type: cell-based; conditions: Streptococcus, SP.19F
Description: as §1

[33] = tested on: Streptococcus pyogenes C203; test: protection of mice experimentally infected with S. pyogenes C203; assay type: in vivo; conditions: mice, mg/kg × 2, doses given 1 and 4 hours postinfection, read-out: ED50
Outline: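 Mice experimentally infected with S. pyogenes C203 got two doses of test compound, at 1 and 4 h postinfection. The ED50 is the dose in mg/kg (per dose, given twice) that protected 50% of the animals.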

[34] = tested on: Streptococcus Group D 9960; test: standard agar-dilution MIC assay; assay type: cell-based; conditions: GROUPD9960, read-out: MIC
Description: as §1

[35] = broth-dilution microtiter, read-out: MIC

SMILES | MIC [1] [µg/mL] | MIC [3] [µg/mL] | MIC [4] [µg/mL] | MIC [5] [µg/mL] | MIC [6] [µg/mL] | MIC [7] [µg/mL] | MIC [8] [µg/mL] | MIC [10] [µg/mL] | MIC [11] [µg/mL] | MIC [12] [µg/mL] | MIC [14] [µg/mL] | MIC [16] [µg/mL] | MIC [18] [µg/mL] | MIC [19] [µg/mL] | MIC [24] [µg/mL] | MIC [25] [µg/mL] | MIC [27] [µg/mL] | MIC [32] [µg/mL] | ED50 ([33]; C203, Oral) [mg/kg] | ED50 ([33]; C203, sc, Subcutaneous) [mg/kg] | other results
CCC1OC(=O)CC(O)C(C)C(OC2OC(C)C(OC3CC(C)(O)C(O)C(C)O3)C(N(C)C)C2OC(C)=O)C(CC=O)CC(C)C(=O)C=CC(C)=CC1COC1OC(C)C2OC(=O)OC2C1OC (stereo not drawn) [Compound 48] | > 128 | 32 (≈ 33 µM) | > 128 | > 128 | 1 (≈ 1.03 µM) | 1 (≈ 1.03 µM) | 2 (≈ 2.06 µM) | 1 (≈ 1.03 µM) | 2 (≈ 2.06 µM) | 2 (≈ 2.06 µM) | 1 (≈ 1.03 µM) | > 50 | 0.195 (≈ 0.201 µM) | 50 (≈ 51.5 µM) | 50 (≈ 51.5 µM) | 50 (≈ 51.5 µM) | 50 (≈ 51.5 µM) | 0.39 (≈ 0.402 µM) | 28 | 1.53 | MIC ([2]; agar-dilution, Ampicillin-resistant strain, read-out: MIC): 16 µg/mL (≈ 16.5 µM); MIC ([9]; agar-dilution, read-out: MIC): 0.5 µg/mL (≈ 0.515 µM); MIC ([13]; agar-dilution, read-out: MIC): 0.5 µg/mL (≈ 0.515 µM); MIC ([15]; agar-dilution, read-out: MIC): 0.12 µg/mL (≈ 0.124 µM); MIC [17, 35]: 12.5 µg/mL (≈ 12.9 µM); MIC [20, 35]: 0.097 µg/mL (≈ 0.1 µM); MIC [21, 35]: 1.56 µg/mL (≈ 1.61 µM); MIC [22, 35]: 0.097 µg/mL (≈ 0.1 µM); MIC [23, 35]: > 50 µg/mL; MIC ([26]; broth-dilution microtiter, Bovine isolate, read-out: MIC): 12.5 µg/mL (≈ 12.9 µM); MIC [28, 35]: 25 µg/mL (≈ 25.8 µM); MIC ([29]; broth-dilution microtiter, Avian isolate, read-out: MIC): 25 µg/mL (≈ 25.8 µM); MIC [30, 35]: 12.5 µg/mL (≈ 12.9 µM); MIC [31, 35]: 1.56 µg/mL (≈ 1.61 µM)
CCC1OC(=O)CC(O)C(C)C(OC2OC(C)C(O)C(N(C)C)C2O)C(CC=O)CC(C)C(=O)C=CC(C)=CC1COC1OC(C)C2OC(=O)OC2C1OC (stereo not drawn) [Compound 51, Lactenocin-3",4"-Carbonate Derivative] | > 128 | 8 (≈ 10.2 µM) | > 128 | > 128 | 2 (≈ 2.55 µM) | 1 (≈ 1.28 µM) | 2 (≈ 2.55 µM) | 1 (≈ 1.28 µM) |  | 2 (≈ 2.55 µM) | 1 (≈ 1.28 µM) | > 50 | 0.39 (≈ 0.498 µM) |  | 25 (≈ 31.9 µM) | 12.5 (≈ 15.9 µM) | 6.25 (≈ 7.97 µM) | 3.12 (≈ 3.98 µM) | > 100 | 1.1 | MIC [2]: 8 µg/mL (≈ 10.2 µM); MIC [9]: 0.5 µg/mL (≈ 0.638 µM); MIC [34]: 2 µg/mL (≈ 2.55 µM); MIC [13]: 0.25 µg/mL (≈ 0.319 µM); MIC [15]: 0.25 µg/mL (≈ 0.319 µM); MIC [17]: 50 µg/mL (≈ 63.8 µM); MIC [19, 35]: > 50 µg/mL; MIC [20, 35]: 0.097 µg/mL (≈ 0.124 µM); MIC [21, 35]: 3.2 µg/mL (≈ 4.08 µM); MIC [22]: 0.78 µg/mL (≈ 0.995 µM); MIC [23]: 12.5 µg/mL (≈ 15.9 µM); MIC [26]: 6.25 µg/mL (≈ 7.97 µM); MIC [28]: 3.12 µg/mL (≈ 3.98 µM); MIC [29]: 6.25 µg/mL (≈ 7.97 µM); MIC [30]: 12.5 µg/mL (≈ 15.9 µM); MIC [31]: 1.56 µg/mL (≈ 1.99 µM)
CCC1OC(=O)CC(O)C(C)C(OC2OC(C)C(O)C(N(C)C)C2O)C(CCOc2ccccc2)CC(C)C(=O)C=CC(C)=CC1COC1OC(C)C2OC(=O)OC2C1OC (stereo not drawn) [Compound 53, 20-DH-20-O-Phenyl-lactenocin 3",4"-Carbonate] | > 128 | 64 (≈ 74.2 µM) | > 128 | > 128 | 1 (≈ 1.16 µM) | 1 (≈ 1.16 µM) | 1 (≈ 1.16 µM) | 1 (≈ 1.16 µM) | 8 (≈ 9.28 µM) | 8 (≈ 9.28 µM) | 1 (≈ 1.16 µM) | > 50 | 0.195 (≈ 0.226 µM) | 50 (≈ 58 µM) | 50 (≈ 58 µM) | 50 (≈ 58 µM) | 50 (≈ 58 µM) | 3.12 (≈ 3.62 µM) | 18.7 | 6.1 | MIC [2]: 32 µg/mL (≈ 37.1 µM); MIC [9]: 0.5 µg/mL (≈ 0.58 µM); MIC [13]: 0.5 µg/mL (≈ 0.58 µM); MIC [15]: 2 µg/mL (≈ 2.32 µM); MIC [17]: 50 µg/mL (≈ 58 µM); MIC [20]: 3.12 µg/mL (≈ 3.62 µM); MIC [21]: 25 µg/mL (≈ 29 µM); MIC [22]: 1.56 µg/mL (≈ 1.81 µM); MIC [23]: 50 µg/mL (≈ 58 µM); MIC [26]: 25 µg/mL (≈ 29 µM); MIC [28]: 50 µg/mL (≈ 58 µM); MIC [29]: 25 µg/mL (≈ 29 µM); MIC [30]: 25 µg/mL (≈ 29 µM); MIC [31]: 0.78 µg/mL (≈ 0.905 µM)
